Assay results published in PubChem BioAssay (NCI).
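GI50 = concentration required for 50% inhibition of growth. The concentration for full growth arrest is given as TGI.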

Columns and labels:
Assay in all cases: growth of human tumour cells (NCI), 384-well format
786-0 renal = test system: 786-0 renal
A498 renal = test system: A498 renal
A549 NSCLC = test system: A549 NSCLC
ACHN renal = test system: ACHN renal
BT-549 breast = test system: BT-549 breast
CAKI-1 renal = test system: CAKI-1 renal
CCRF-CEM leukemia = test system: CCRF-CEM leukemia
COLO 205 colon = test system: COLO 205 colon
DU-145 prostate = test system: DU-145 prostate
HCC-2998 colon = test system: HCC-2998 colon
HCT-116 colon = test system: HCT-116 colon
HCT-15 colon = test system: HCT-15 colon
HL-60(TB) leukemia = test system: HL-60(TB) leukemia
HOP-62 NSCLC = test system: HOP-62 NSCLC
HOP-92 NSCLC = test system: HOP-92 NSCLC
HT29 colon = test system: HT29 colon
IGROV1 ovarian = test system: IGROV1 ovarian
K-562 leukemia = test system: K-562 leukemia
KM12 colon = test system: KM12 colon
LOX IMVI melanoma = test system: LOX IMVI melanoma
M14 melanoma = test system: M14 melanoma
MALME-3M melanoma = test system: MALME-3M melanoma
MCF7 breast = test system: MCF7 breast
MDA-MB-231 breast = test system: MDA-MB-231 breast
MDA-MB-435 melanoma = test system: MDA-MB-435 melanoma
MDA-MB-468 breast = test system: MDA-MB-468 breast
MOLT-4 leukemia = test system: MOLT-4 leukemia
NCI-H226 lung = test system: NCI-H226 lung
NCI-H23 lung = test system: NCI-H23 lung
NCI-H322M lung = test system: NCI-H322M lung
NCI-H460 NSCLC = test system: NCI-H460 NSCLC
NCI-H522 lung = test system: NCI-H522 lung
NCI/ADR-RES ovarian = test system: NCI/ADR-RES ovarian
OVCAR-3 ovarian = test system: OVCAR-3 ovarian
OVCAR-4 ovarian = test system: OVCAR-4 ovarian
OVCAR-5 ovarian = test system: OVCAR-5 ovarian
OVCAR-8 ovarian = test system: OVCAR-8 ovarian
PC-3 prostate = test system: PC-3 prostate
RPMI-8226 leukemia = test system: RPMI-8226 leukemia
RXF 393 renal = test system: RXF 393 renal
SF-268 CNS = test system: SF-268 CNS
SF-295 CNS = test system: SF-295 CNS
SF-539 CNS = test system: SF-539 CNS
SK-MEL-2 melanoma = test system: SK-MEL-2 melanoma
SK-MEL-28 melanoma = test system: SK-MEL-28 melanoma
SK-MEL-5 melanoma = test system: SK-MEL-5 melanoma
SK-OV-3 ovarian = test system: SK-OV-3 ovarian
SN12C renal = test system: SN12C renal
SNB-19 CNS = test system: SNB-19 CNS
SR leukemia = test system: SR leukemia
SW-620 colon = test system: SW-620 colon
T-47D breast = test system: T-47D breast
TK-10 renal = test system: TK-10 renal
U251 glioblastoma = test system: U251 glioblastoma
UACC-257 melanoma = test system: UACC-257 melanoma
UACC-62 melanoma = test system: UACC-62 melanoma
UO-31 renal = test system: UO-31 renal

Nc1ccc(/C=C/C(=O)NCc2cc3cc(-c4ccc(C(=O)N5CCC(F)(F)CC5)cc4)cc(-c4ccc(F)cc4)c3o2)cn1
GI50 ([…]-0 renal): 117 nM | TGI (786-0 renal): 249 nM | GI50 (A498 renal): 2270 nM | TGI (A498 renal): 33400 nM | GI50 (A549 NSCLC): 252 nM | TGI (A549 NSCLC): 699 nM | GI50 (ACHN renal): 121 nM | TGI (ACHN renal): 348 nM | GI50 (BT-549 breast): 211 nM | TGI (BT-549 breast): 461 nM | GI50 (CAKI-1 renal): 120 nM | TGI (CAKI-1 renal): 282 nM | GI50 (CCRF-CEM leukemia): 21.4 nM | TGI (CCRF-CEM leukemia): 37.2 nM | GI50 (COLO 205 colon): 22.7 nM | TGI (COLO 205 colon): 53.4 nM | GI50 (DU-145 prostate): 259 nM | TGI (DU-145 prostate): 641 nM | GI50 (HCC-2998 colon): 114 nM | TGI (HCC-2998 colon): 270 nM | GI50 (HCT-116 colon): 20.6 nM | TGI (HCT-116 colon): 40.7 nM | GI50 (HCT-15 colon): 250 nM | TGI (HCT-15 colon): 741 nM | GI50 (HL-60(TB) leukemia): 22.8 nM | TGI (HL-60(TB) leukemia): 37.6 nM | GI50 (HOP-62 NSCLC): 65.6 nM | TGI (HOP-62 NSCLC): 242 nM | GI50 (HOP-92 NSCLC): 441 nM | TGI (HOP-92 NSCLC): 1830 nM | GI50 (HT29 colon): 331 nM | TGI (HT29 colon): 985 nM | GI50 (IGROV1 ovarian): 131 nM | TGI (IGROV1 ovarian): 265 nM | GI50 (K-562 leukemia): 33.3 nM | TGI (K-562 leukemia): 175 nM | GI50 (KM12 colon): 58.6 nM | TGI (KM12 colon): 210 nM | GI50 (LOX IMVI melanoma): 567 nM | TGI (LOX IMVI melanoma): 2020 nM | GI50 (M14 melanoma): 328 nM | TGI (M14 melanoma): 1390 nM | GI50 (MALME-3M melanoma): 374 nM | TGI (MALME-3M melanoma): 916 nM | GI50 (MCF7 breast): 213 nM | TGI (MCF7 breast): 485 nM | GI50 (MDA-MB-231 breast): 549 nM | TGI (MDA-MB-231 breast): 1950 nM | GI50 (MDA-MB-435 melanoma): 146 nM | TGI (MDA-MB-435 melanoma): 283 nM | GI50 (MDA-MB-468 breast): 190 nM | TGI (MDA-MB-468 breast): 384 nM | GI50 (MOLT-4 leukemia): 21.9 nM | TGI (MOLT-4 leukemia): 39.2 nM | GI50 (NCI-H226 lung): 7380 nM | TGI (NCI-H226 lung): > 100000 nM | GI50 (NCI-H23 lung): 218 nM | TGI (NCI-H23 lung): 430 nM | GI50 (NCI-H322M lung): 34.7 nM | TGI (NCI-H322M lung): 139 nM | GI50 (NCI-H460 NSCLC): 437 nM | TGI (NCI-H460 NSCLC): 1570 nM | GI50 (NCI-H522 lung): 18.1 nM | TGI (NCI-H522 lung): 34.8 nM | GI50 (NCI/ADR-RES ovarian): 307 nM | TGI (NCI/ADR-RES ovarian): 1140 nM | GI50 (OVCAR-3 ovarian): 53.9 nM | TGI (OVCAR-3 ovarian): 217 nM | GI50 (OVCAR-4 ovarian): 212 nM | TGI (OVCAR-4 ovarian): 472 nM | GI50 (OVCAR-5 ovarian): 21.5 nM | TGI (OVCAR-5 ovarian): 44 nM | GI50 (OVCAR-8 ovarian): 16.8 nM | TGI (OVCAR-8 ovarian): 32.8 nM | GI50 (PC-3 prostate): 48.1 nM | TGI (PC-3 prostate): 165 nM | GI50 (RPMI-8226 leukemia): 58.7 nM | TGI (RPMI-8226 leukemia): 191 nM | GI50 (RXF 393 renal): 105 nM | TGI (RXF 393 renal): 255 nM | GI50 (SF-268 CNS): 175 nM | TGI (SF-268 CNS): 325 nM | GI50 (SF-295 CNS): 188 nM | TGI (SF-295 CNS): 368 nM | GI50 (SF-539 CNS): 15.5 nM | TGI (SF-539 CNS): 30.3 nM | GI50 (SK-MEL-2 melanoma): 41.4 nM | TGI (SK-MEL-2 melanoma): 108 nM | GI50 (SK-MEL-28 melanoma): 223 nM | TGI (SK-MEL-28 melanoma): 410 nM | GI50 (SK-MEL-5 melanoma): 174 nM | TGI (SK-MEL-5 melanoma): 360 nM | GI50 (SK-OV-3 ovarian): 20.9 nM | TGI (SK-OV-3 ovarian): 49.1 nM | GI50 (SN12C renal): 17.6 nM | TGI (SN12C renal): 32 nM | GI50 (SNB-19 CNS): 28 nM | TGI (SNB-19 CNS): 82 nM | GI50 (SR leukemia): 1330 nM | TGI (SR leukemia): 2690 nM | GI50 (SW-620 colon): 23.9 nM | TGI (SW-620 colon): 53.4 nM | GI50 (T-47D breast): 20.1 nM | TGI (T-47D breast): 50.6 nM | GI50 (TK-10 renal): 210 nM | TGI (TK-10 renal): 404 nM | GI50 (U251 glioblastoma): 35.6 nM | TGI (U251 glioblastoma): 148 nM | GI50 (UACC-257 melanoma): 504 nM | TGI (UACC-257 melanoma): 2910 nM | GI50 (UACC-62 melanoma): 206 nM | TGI (UACC-62 melanoma): 427 nM | GI50 (UO-31 renal): 52.3 nM | TGI (UO-31 renal): 174 nM
